Assay results: PMC4117768, “Conjugation with polyamines enhances the antibacterial and anticancer activity of chloramphenicol” (Nucleic Acids Research, 2014)
Values joined by “and” are separate entries in the source; they are usually repeats but may differ in a detail not shown here. Equal values may be shown once.

Test system: complex C (poly(U)-programmed ribosomes from E. coli bearing Ac[3H]Phe-tRNA at the P-site), peptidyl transferase
Assay: Inhibition of AcPhe-puromycin synthesis (puromycin reaction, peptide bond formation)
Format: biochemical
Conditions: for Ki: 25°C, buffer A
Description: Isolation of 70S ribosomes from E. coli K12 cells and preparation of Ac[^3H]Phe-tRNA^Phe charged to 80% were performed, as described previously ([23]). The post-translocation complex of poly(U)-programmed ribosomes (complex C), bearing tRNA^Phe at the E-site and Ac[^3H]Phe-tRNA at the P-site was prepared in buffer A (100 mM Tris-HCl pH 7.2, 6 mM (CH3COO)2Mg, 100 mM NH4Cl and 6 mM 2-mercaptoethanol). The percentage of active ribosomes in AcPhe-tRNA binding was 72%. This ribosomal population was more than 90% reactive toward puromycin.
The reaction between complex C and excess puromycin (S), a pseudo-substrate which binds to the ribosomal A-site, was performed at 25°C in buffer A and analyzed as described in detail elsewhere ([11]). Briefly, since the reaction followed first-order kinetics, the first-order rate constant kobs at each concentration of puromycin was determined by fitting the corrected x-values into Equation ([1]), (1) where x is the product Ac[^3H]Phe-puromycin expressed as the percentage of complex C radioactivity added in the reaction mixture and t the time of the reaction. kobs is related to the puromycin concentration, [S], by the relationship, (2) where kcat is the catalytic rate constant of PTase and KS the affinity constant of puromycin for complex C.
In the presence of CAM–polyamine conjugates, biphasic logarithmic time plots were obtained. The slope of the straight line through the origin was taken as the value of the apparent rate constant, kobs(early), at the early phase of the reaction, while the slope of the second straight line was taken as the value of the rate constant, kobs(late), at the late phase of the reaction.

SMILES: NCCCN(CCCCN(Cc1ccccc1)Cc1ccccc1)C(=O)CCC(=O)N[C@H](CO)[C@H](O)c1ccc([N+](=O)[O-])cc1 [Compound 4]
- Ki (early phase of the reaction (encounter complex CI)): 975 nM and 980 nM
- Ki (late phase of the reaction (complex C*I)): 280 ± 30 nM
- potency relative to CAM, based on Kik7/(k6 + k7) (overall two-step inhibition of the puromycin reaction): 3 fold
